{"source": "patent US9765061B2", "about": "“Trail enhancers for the selective killing of cancer cells” (The Scripps Research Institute, priority 2013, dated 2017)", "key": {"HeLa cell line": {"tested_on": "HeLa cell line", "assay": "PARP cleavage in HeLa cells", "assay_type": "cell-based, human", "details": "FIG. 3C", "protocol": "(§1) FIG. 3: Sensitivity of cancerous and non-cancerous cells to apoptosis induced by TNF, C12 or a combination of C12 and TNF. Cells were incubated with TNF, (C12) or a combination of TNF and (C12) as indicated, and the cleavage of PARP (an apoptotic marker) was determined by Western blot. (A and B) Breast cancer MCF-7 cells transfected with control vector (Vector) and vector expressing Bcl-2 or CLARP. (C) HeLa cell line. (D) Normal human bronchial epithelial cells (NHBE).\nSimilar experiments were conducted by using normal human bronchial epithelial cells and HeLa cell line as an example of transformed cells. We observed that both HeLa and normal cells were resistant to pro-apoptotic effects of TNF (FIG. 3C and 3D). […] In addition, two stimuli—C12 and TNF—work synergistically against cancerous cells, although normal cells stay intact.\n(§2) Antibodies and Western blot analysis. Anti-eIF2α, phospho-eIF2α[…](p-eIF2α), p38, p-p38 (Thr180/Tyr132), p-RelA (Ser536), p-I κB ? 32/36), PARP 20 antibodies were purchased from Cell Signaling; anti-RelA, I κB α, IκBβ were from Santa Cruz Biotechnology. Cellular extracts were prepared and analyzed by Western blot assay as previously described.^E3"}, "MCF7 cells": {"tested_on": "MCF7 cells", "assay": "PARP cleavage in breast cancer MCF7 cells (Vector, Bcl-2, CLARP)", "assay_type": "cell-based, human", "details": "control MCF7, MCF7/Bcl-2 and MCF7/CLARP, FIG. 3B", "protocol": "as §1\nTo further test this hypothesis, we compared sensitivity of breast cancer cell line MCF7 to apoptosis induced by TNF, C12 or their combination. In these experiments we used a control variant of MCF7 (Vector) as well as MCF7 cells stably expressing negative regulators of apoptosis, such as Bcl-2 and CLARP; Bcl-2 is an inhibitor of the intrinsic apoptotic pathway, whereas CLARP inhibits receptor-dependent apoptotic signaling, also called the extrinsic apoptotic pathway. The cells were incubated with TNF, C12 or their combination, and protein extracts were analyzed by Western blot for the cleavage of PARP, a biochemical marker indicative of apoptosis ^26.\nAntibodies and Western blot analysis. Anti-eIF2α, phospho-eIF2α[…](p-eIF2α), p38, p-p38 (Thr180/Tyr132), p-RelA (Ser536), p-I κB ? […] Cellular extracts were prepared and analyzed by Western blot assay as previously described.^E3"}, "A549 cell line": {"tested_on": "A549 cell line", "assay": "Viability of A549 cells, XTT-based assay, with or without TRAIL", "assay_type": "cell-based, human", "protocol": "FIG. 4: C12 sensitizes long cancer cell line A549 to TRAIL. (A) Viability of cells was examined after 24-hour incubation in media containing TRAIL (50 ng/ml), compound (C12) (1 μM), compound (C12R) (25 μM) or the indicated combination of TRAIL (T) with (C12) or (C12R). The chemical structures of (C12) and its stereoisomer (C12R) are shown on the right. (B) Viability of cells was examined after 24-hour incubation in media, containing TRAIL (50 ng/ml) and the indicated doses of C12. Viable cells remaining after the treatment were determined as a function of mitochondrial activity of living cells according to XTT-based toxicology assay kit (Sigma) and are shown as a percentage of viable untreated cells.\nTo test this hypothesis, we examined the effect of C12 in vitro on the activity of TRAIL against A549 cell line derived from a cancer sample of the human lung.\nCytotoxicity was determined by using the XTT-based toxicology assay kit (Sigma, St. Louis, Miss.) in accordance with the manufacturer's instructions. For some experiments, to confirm the apoptotic nature of toxicity, cells were analyzed using protocols and instructions of the Annexin V-FITC apoptosis detection kit (Biovision, Mountain View, Calif.). In addition, caspase 3, 8 and 9 activities were determined by colorimetric assays (R&D System), and the data are expressed as fold increases compared to the values of untreated or control-treated cells (n=5)."}, "[1]": {"tested_on": "bone marrow-derived macrophages (BMDM)", "assay": "Responses of bone marrow-derived macrophages to AHLs (toxicity, Western blot)", "assay_type": "cell-based, mouse", "protocol": "FIG. 13. AHL-mediated inhibition of inflammation-induced NF-κB signaling is sufficient for rendering tumors susceptible to TRAIL-induced apoptosis. a) Western blot analysis of PARP cleavage in cancer cells stimulated for 3 h with TRAIL or its combination with different AHLs as indicated, b) Western blot analysis of PARP cleavage as well as phosphorylated forms of eIF2α and p38 in extracts from bone marrow-derived macrophages (BMDM) stimulated with (C12) or (3-N2), i.e., (S)-(3-N2), as indicated, c) Western blot analysis of PARP cleavage and temporal profiles of IκBα expression in BMDM extracts prepared after treatment with LPS or its combination with (C12) or (3-N2). d) Inhibitory effect of (C12) and its derivatives on LPS-induced TNF production in BMDM. e) Lung cancer cells were exposed to (3-N2) (10 μM), TRAIL (0.5 ng/ml), TNF (20 ng/ml) or their combinations as indicated. After 2 h, cell lysates were prepared and analyzed by Western blot for PARP cleavage, IκBα and actin.\nMice, bone marrow-derived macrophages and other cell culture, C57BL/6 mice were purchased from the Jackson Laboratory (Bar Harbor, Me.). Bone marrow-derived macrophages (BMDM) and murine embryonic fibroblasts (MEF) were prepared by using standard protocols that were approved by the TSRI Animal Care and Use Committee. L929/NCTC clone 929 (connective tissue, mouse) cell lines were purchased from ATCC (Manassas, Va.). MEFs and L929 cell line were maintained in GM (see above). BMDM were cultured in 70% GM and 30% L929 conditioned medium. In general, cells (˜60-70% confluence) were incubated in fresh medium for 12-14 h before stimulation.\nas §2\nCell stimulation. In all experiments, BMDM were stimulated with LPS (100 ng/ml), AHL (10-25 μM; usually BMDM and primary macrophages were stimulated by 25 μM of C12) or their combination as indicated in the figure legends. If not indicated, cancer and normal cells were stimulated with 40 ng/ml of TNFα, 20 ng/ml TRAIL and 10 μM (in case of cancer cells) or 25 μM (in case of normal cells) of AHL."}}, "data": [{"smiles": "CCCCCCCCCC(=O)CC(=O)N[C@H]1CCOC1=O", "note": "[Compound 1, N-(3-oxo-dodecanoyl) homoserine lactone]", "values": [{"measurement": "cleavage of PARP, compound alone", "setting": "HeLa cell line", "result": "induced the cleavage of PARP"}, {"measurement": "sensitivity to apoptosis (PARP cleavage), compound alone", "setting": "MCF7 cells", "result": "showed sensitivity"}, {"measurement": "cell growth and viability, compound alone", "setting": "A549 cell line; C12 1 μM or 25 μM, C12R 25 μM, no TRAIL", "result": "practically unchanged"}, {"measurement": "sensitivity of A549 cells to TRAIL in the presence of compound", "setting": "A549 cell line; FIG. 8A", "result": "comparable increase in sensitivity"}, {"measurement": "cytotoxicity at 0.1 µM", "setting": "A549 cell line; Homo sapiens, A549, 100 nM of C12 and 50 ng/ml of TRAIL, 24-hours incubation, read-out: cells that lost their viability", "result": "> 50", "unit": "%"}, {"measurement": "viability of A549 cells", "setting": "A549 cell line; combination of TRAIL (50 ng/ml) and C12 (1 μM)", "result": "dramatically reduced"}, {"measurement": "eIF2α phosphorylation in macrophages", "setting": "[1]; Western blot, FIG. 13b", "result": "induced eIF2α phosphorylation in a similar fashion"}, {"measurement": "blocking LPS-induced re-synthesis of IκBα", "setting": "[1]; macrophages activated by LPS, FIG. 13c", "result": "equally effective"}]}]}
